In patent US20090209512A1, “NEUROGENESIS INDUCER OR NEUROPATHY THERAPEUTIC AGENT COMPRISING ALKYL ETHER DERIVATIVE OR SALT THEREOF” (Toyama Chemical Co., Ltd., priority 2006, published 2009):

Legend:
[1] = system: cultured neural stem cells; test: Effect on differentiation of cultured neural stem cell (Tuj1-positive cell ratio); format: cell-based, ICR mouse
Procedure: Cultured neural stem cells were prepared according to the partially modified method of Hirabayashi (Development, 2004, 131(12), p. 2791-2801). The cerebrum was removed from an ICR mouse embryo (embryonic day 14) and incubated in artificial cerebrospinal fluid (124 mM NaCl, 5 mM KCl, 1.3 mM MgCl2, 2 mM CaCl2, 26 mM NaHCO3, 10 mM D-Glucose, pH 7.4) containing 0.0625% trypsin and 0.1 mg/mL of DNaseI at 37° C. for 5 min. A trypsin inhibitor (final concentration: 0.35 mg/mL) was then added and the mixture was centrifuged at 800 rpm for 5 min. The obtained pellet was dispersed by pipetting in a neural stem cell culture medium (DMEM/F-12 culture medium containing 20 ng/mL basic fibroblast growth factor, 20 ng/mL epidermal growth factor and B27 supplement (Invitrogen)) to obtain single cell suspension. […]
After 3 days of culturing, the cells were washed with phosphate-buffered saline (PBS), fixed with 4% paraformaldehyde/phosphate buffer, treated with 0.3% Triton X-100/PBS solution at room temperature for 5 minutes, washed with PBS, and incubated with 0.5% skim milk at room temperature for 1 hour. […] The cells were washed with PBS and observed under fluorescence microscope, and the number of the Tuj1-positive cells emitting red fluorescence was counted, and its ratio against the total cell number was calculated as the differentiation ratio into neurons representing a neurogenesis inducing effect.

[2] = system: Male DBA/2J mice; test: Novelty-suppressed feeding (NSF) test; format: in vivo; conditions: 10 mg/kg orally for 28 days
Procedure: The novelty-suppressed feeding (NSF) test (Santarelli et al., 2003, Science. 301: 805-9) was performed to assess antidepressant efficacy of T-817MA. Male DBA/2J mice (7 weeks old, 20-21 animals/group) were used. We administrated mice orally with T-817MA (10 mg/kg), or vehicle (distilled water) for 28 days before NSF test. At the time of testing, mice that had been food deprived for 24 hours were gently placed in a corner of a brightly lit arena (approximately 650 lux at floor of arena, 50×50×20 cm) for a maximum of 5 minutes. The floor was covered with approximately 2 cm of bedding. Pellet of food was attached by wire at the center of the arena. […] Statistical differences between vehicle group and T-817MA treated group were found by Dunnett test.

[3] = system: cultured neural stem cells; conditions: Proc. Natl. Acad. Sci. U.S.A., 2004, 101(47), pp. 16659-64; cited from earlier work

With `OC1CN(CCCOCCc2ccc3sccc3c2)C1` [T-817MA, 1-(3-(2-(1-benzothiophen-5-yl)ethoxy)propyl)azetidin-3-ol] the “Differentiation ratio compared with control group (neurogenesis inducing effect)” value ([1]; T-817MA 10 μM vs B27 supplemented DMEM/F-12 alone) was “higher differentiation ratio”, the “Differentiation ratio into neurons (%) (Ratio of Tuj1 positive cells)” value ([1]; T-817MA 10 μM, 3 days of culturing, B27-supplemented DMEM/F-12, control group 13.0) was 27.4% and the “NSF latency (mean)” value ([2]; mice food deprived 24 hours, vehicle 227.2) was 145.5 s. For the same compound, the “Latency to feed vs vehicle group” value ([2]; P<0.01, Dunnett test) was “significant decreased latency to feed”.

For `CCCC(CCC)C(=O)O` [valproic acid], the “Neurogenesis inducing effect in cultured neural stem cells” value [3] is listed as “show the neurogenesis inducing effect”.
